Measured values from ChEMBL document CHEMBL1201862, “PubChem BioAssay data set” (2004).
Values joined by “and” are separate entries in the source; they are usually repeats but may differ in a detail not shown here. Identical values can stand only once.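 Exposure lasted 48 hours, with cells grown in 96-well plates and compounds tested at five concentrations. Here, GI50 denotes the concentration required for 50% inhibition of growth.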 Active and inactive are the calls of the source. Cut-off read from the data, not from the text of the source: active = GI50 up to about 1.1 µM and inactive = higher.

Legend:
Test in all cases: NCI tumour cell line growth inhibition, 48 h
[1] = system: HOP-62
[2] = system: A498
[3] = system: SK-MEL-2
[4] = system: NCI/ADR-RES
[5] = system: HCC 2998
[6] = system: SNB-19
[7] = system: COLO 205
[8] = system: MDA-MB-231
[9] = system: PC-3
[10] = system: SK-MEL-5
[11] = system: BT-549
[12] = system: SF-295
[13] = system: LOX IMVI
[14] = system: SF-268
[15] = system: SN12C
[16] = system: OVCAR-5
[17] = system: NCI-H522
[18] = system: Malme-3M
[19] = system: SW-620
[20] = system: EKVX
[21] = system: MCF7
[22] = system: RXF 393
[23] = system: NCI-H460
[24] = system: TK-10
[25] = system: MDA-N
[26] = system: NCI-H23
[27] = system: Hs-578T
[28] = system: OVCAR-4
[29] = system: HCT-15
[30] = system: UACC-62
[31] = system: SK-MEL-28
[32] = system: ACHN
[33] = system: HL-60
[34] = system: CCRF-CEM
[35] = system: T47D
[36] = system: 786-0
[37] = system: HCT-116
[38] = system: HT-29
[39] = system: SR
[40] = system: U-251
[41] = system: HOP-92
[42] = system: CAKI-1
[43] = system: MOLT-4
[44] = system: NCI-H226
[45] = system: SNB-75
[46] = system: KM12
[47] = system: IGROV-1
[48] = system: SF-539
[49] = system: DU-145
[50] = system: A549
[51] = system: K562
[52] = system: UACC-257
[53] = system: UO-31
[54] = system: MDA-MB-435
[55] = system: OVCAR-8
[56] = system: M14
[57] = system: OVCAR-3
[58] = system: RPMI-8226
[59] = system: SK-OV-3

SMILES: CC(=O)OCC1OC(SC2=N/C(=C\c3ccc(Br)s3)C(=O)N2c2ccccc2)C(OC(C)=O)C(OC(C)=O)C1OC(C)=O (configuration not stated)
- GI50 [1]: 55 µM (inactive) and 41.7 µM (inactive)
- GI50 [2]: 41.1 µM (inactive) and 58.7 µM (inactive)
- GI50 [3]: 16.7 µM (inactive) and 32.6 µM (inactive)
- GI50 [4]: 40.9 µM (inactive) and 43.1 µM (inactive)
- GI50 [5]: 59 µM (inactive) and 36.5 µM (inactive)
- GI50 [6]: 56.4 µM (inactive) and 37.1 µM (inactive)
- GI50 [7]: 41.2 µM (inactive) and 57.9 µM (inactive)
- GI50 [8]: 58.5 µM (inactive) and 42.9 µM (inactive)
- GI50 [9]: 34.1 µM (inactive) and 58.5 µM (inactive)
- GI50 [10]: 52.2 µM (inactive) and 42.9 µM (inactive)
- GI50 [11]: 24.4 µM (inactive) and 41.6 µM (inactive)
- GI50 [12]: 39.8 µM (inactive) and 58.1 µM (inactive)
- GI50 [13]: 47.8 µM (inactive) and 64.3 µM (inactive)
- GI50 [14]: > 100 µM (inactive) and 55.8 µM (inactive)
- GI50 [15]: 50.6 µM (inactive)
- GI50 [16]: > 100 µM (inactive)
- GI50 [17]: 21.8 µM (inactive) and 25.5 µM (inactive)
- GI50 [18]: 50.6 µM (inactive) and 53.6 µM (inactive)
- GI50 [19]: > 100 µM (inactive) and 92 µM (inactive)
- GI50 [20]: 34.3 µM (inactive) and 30.7 µM (inactive)
- GI50 [21]: 42 µM (inactive) and 78.9 µM (inactive)
- GI50 [22]: 12.1 µM (inactive) and 9.64 µM (inactive)
- GI50 [23]: 30.1 µM (inactive) and 38.1 µM (inactive)
- GI50 [24]: 40.6 µM (inactive) and 60.3 µM (inactive)
- GI50 [25]: > 100 µM (inactive) and 54.6 µM (inactive)
- GI50 [26]: 19 µM (inactive) and 33.4 µM (inactive)
- GI50 [27]: 48.1 µM (inactive) and 35.2 µM (inactive)
- GI50 [28]: 31.8 µM (inactive) and 41.9 µM (inactive)
- GI50 [29]: > 100 µM and 66.8 µM
- GI50 [30]: 30.6 µM (inactive) and 30.9 µM (inactive)
- GI50 [31]: > 100 µM (inactive) and 82.8 µM (inactive)
- GI50 [32]: 32.1 µM (inactive) and 52.1 µM (inactive)

SMILES: CC(=O)NC1(C(=O)N[C@@H](Cc2ccccc2)C(=O)NC2CCCCC2)Cc2ccc3ccccc3c2-c2c(ccc3ccccc23)C1
- GI50 [33]: 5.02 µM (inactive) and 3.49 µM (inactive)
- GI50 [2]: 14.6 µM (inactive) and 21.2 µM (inactive)
- GI50 [3]: 15.3 µM (inactive) and 7.89 µM (inactive)
- GI50 [4]: 3.94 µM (inactive) and 6.82 µM (inactive)
- GI50 [5]: 6.73 µM (inactive) and 4.54 µM (inactive)
- GI50 [11]: 8.97 µM (inactive) and 15.2 µM (inactive)
- GI50 [13]: 53.2 µM (inactive) and 50.5 µM (inactive)
- GI50 [34]: 5.18 µM (inactive) and 3.47 µM (inactive)
- GI50 [35]: 4.55 µM (inactive) and 5.27 µM (inactive)
- GI50 [36]: 8.95 µM (inactive) and 8.73 µM (inactive)
- GI50 [37]: 4.48 µM (inactive) and 6.7 µM (inactive)
- GI50 [38]: 6.37 µM (inactive) and 4.84 µM (inactive)
- GI50 [39]: 14.7 µM (inactive) and 12.6 µM (inactive)
- GI50 [19]: 17.8 µM (inactive) and 25.3 µM (inactive)
- GI50 [21]: 3.03 µM (inactive) and 5.48 µM (inactive)
- GI50 [23]: 6.17 µM (inactive) and 3.41 µM (inactive)
- GI50 [40]: 9.53 µM (inactive) and 5.89 µM (inactive)
- GI50 [27]: > 100 µM (inactive)
- GI50 [41]: 48.6 µM (inactive) and 32 µM (inactive)
- GI50 [29]: 6.61 µM and 3.9 µM
- GI50 [42]: 26.7 µM (inactive) and 15.6 µM (inactive)
- GI50 [32]: 4.06 µM (inactive) and 7.73 µM (inactive)

SMILES: Cc1c(OCc2cccc3ccccc23)ccc2c(=O)cc(SCCN3CCOCC3)oc12
- GI50 [1]: > 100 µM (inactive)
- GI50 [33]: > 100 µM (inactive)
- GI50 [2]: > 100 µM (inactive)
- GI50 [3]: > 100 µM (inactive)
- GI50 [4]: > 100 µM (inactive)
- GI50 [5]: > 100 µM (inactive)
- GI50 [43]: > 100 µM (inactive)
- GI50 [6]: > 100 µM (inactive)
- GI50 [7]: > 100 µM (inactive)
- GI50 [44]: > 100 µM (inactive)
- GI50 [8]: > 100 µM (inactive)
- GI50 [9]: > 100 µM (inactive)
- GI50 [10]: > 100 µM (inactive)
- GI50 [11]: > 100 µM (inactive)
- GI50 [12]: > 100 µM (inactive)
- GI50 [13]: > 100 µM (inactive)
- GI50 [45]: > 100 µM (inactive)
- GI50 [14]: > 100 µM (inactive)
- GI50 [34]: > 100 µM (inactive)
- GI50 [35]: > 100 µM (inactive)
- GI50 [46]: > 100 µM (inactive)
- GI50 [36]: > 100 µM (inactive)
- GI50 [15]: > 100 µM (inactive)
- GI50 [16]: 78.2 µM (inactive)
- GI50 [47]: > 100 µM (inactive)
- GI50 [48]: > 100 µM (inactive)
- GI50 [37]: > 100 µM (inactive)
- GI50 [17]: 90.6 µM (inactive)
- GI50 [38]: > 100 µM (inactive)
- GI50 [49]: > 100 µM (inactive)
- GI50 [39]: > 100 µM (inactive)
- GI50 [19]: > 100 µM (inactive)
- GI50 [20]: > 100 µM (inactive)
- GI50 [50]: > 100 µM (inactive)
- GI50 [21]: > 100 µM (inactive)
- GI50 [22]: > 100 µM (inactive)
- GI50 [51]: > 100 µM (inactive)
- GI50 [52]: > 100 µM (inactive)
- GI50 [23]: 6.53 µM (inactive)
- GI50 [53]: > 100 µM (inactive)
- GI50 [24]: > 100 µM (inactive)
- GI50 [40]: > 100 µM (inactive)
- GI50 [54]: > 100 µM (inactive)
- GI50 [26]: > 100 µM (inactive)
- GI50 [55]: > 100 µM (inactive)
- GI50 [27]: > 100 µM (inactive)
- GI50 [41]: > 100 µM (inactive)
- GI50 [28]: 38.5 µM (inactive)
- GI50 [29]: > 100 µM
- GI50 [30]: > 100 µM (inactive)
- GI50 [31]: > 100 µM (inactive)
- GI50 [42]: > 100 µM (inactive)
- GI50 [56]: > 100 µM (inactive)
- GI50 [57]: > 100 µM (inactive)
- GI50 [32]: > 100 µM (inactive)

SMILES: O=C1c2ccccc2S(=O)(=O)c2c1cccc2[N+](=O)[O-]
- GI50 [1]: 5.32 µM (inactive)
- GI50 [33]: 1.33 µM (inactive)
- GI50 [2]: 4.66 µM (inactive)
- GI50 [3]: 5.85 µM (inactive)
- GI50 [4]: 2.38 µM (inactive)
- GI50 [5]: 5.77 µM (inactive)
- GI50 [43]: 1.85 µM (inactive)
- GI50 [6]: > 10 µM (inactive)
- GI50 [7]: 1.16 µM (inactive)
- GI50 [44]: > 7.26 µM (inactive)
- GI50 [8]: 2.29 µM (inactive)
- GI50 [9]: 3.01 µM (inactive)
- GI50 [10]: 0.643 µM (active)
- GI50 [58]: 1.63 µM (inactive)
- GI50 [11]: 3.45 µM (inactive)
- GI50 [12]: 8.99 µM (inactive)
- GI50 [13]: 2.14 µM (inactive)
- GI50 [45]: 3.42 µM (inactive)
- GI50 [14]: 3.05 µM (inactive)
- GI50 [34]: 1.51 µM (inactive)
- GI50 [35]: 2.37 µM (inactive)
- GI50 [46]: 2.15 µM (inactive)
- GI50 [36]: 1.52 µM (inactive)
- GI50 [15]: 2.2 µM (inactive)
- GI50 [16]: 3.45 µM (inactive)
- GI50 [47]: 1.9 µM (inactive)
- GI50 [48]: 1.94 µM (inactive)
- GI50 [37]: 1.3 µM (inactive)
- GI50 [17]: 1.18 µM (inactive)
- GI50 [38]: 2.57 µM (inactive)
- GI50 [18]: 1.46 µM (inactive)
- GI50 [49]: 4.79 µM (inactive)
- GI50 [39]: 0.902 µM (active)
- GI50 [19]: 1.61 µM (inactive)
- GI50 [20]: 3.35 µM (inactive)
- GI50 [50]: 4.7 µM (inactive)
- GI50 [21]: 1.25 µM (inactive)
- GI50 [22]: 2.9 µM (inactive)
- GI50 [51]: > 10 µM (inactive)
- GI50 [52]: 1.87 µM (inactive)
- GI50 [23]: > 5.83 µM (inactive)
- GI50 [53]: 2 µM (inactive)
- GI50 [59]: > 6.62 µM (inactive)
- GI50 [24]: 5.69 µM (inactive)
- GI50 [40]: 2.65 µM (inactive)
- GI50 [54]: 1.59 µM (inactive)
- GI50 [26]: 3.5 µM (inactive)
- GI50 [55]: 2.1 µM (inactive)
- GI50 [27]: 4.25 µM (inactive)
- GI50 [41]: 4.49 µM (inactive)
- GI50 [28]: 2.12 µM (inactive)
- GI50 [29]: 1.35 µM
- GI50 [30]: 1.72 µM (inactive)
- GI50 [31]: 2 µM (inactive)
- GI50 [42]: 4.21 µM (inactive)
- GI50 [56]: 1.61 µM (inactive)
- GI50 [57]: 1.22 µM (inactive)
- GI50 [32]: 2.44 µM (inactive)
